The assay deals with Ubiquitin carboxyl-terminal hydrolase 8 (Homo sapiens) (UniProt P40818). Nature of the assay: Ubiquitin-specific protease 8 inhibitors, concentration-effect, biochemical, validation of initial actives (AID 1645862).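 Further: potency reflects inhibition of USP8 cleavage of a ubiquitin rhodamine substrate.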 The following applies: recombinant USP8 deubiquitinase activity assay.

Activity calls are given as the source filed them. How the calls were made is not given here.

Chain of Ubiquitin carboxyl-terminal hydrolase 8 (Homo sapiens) (P40818 whole entry, looked up): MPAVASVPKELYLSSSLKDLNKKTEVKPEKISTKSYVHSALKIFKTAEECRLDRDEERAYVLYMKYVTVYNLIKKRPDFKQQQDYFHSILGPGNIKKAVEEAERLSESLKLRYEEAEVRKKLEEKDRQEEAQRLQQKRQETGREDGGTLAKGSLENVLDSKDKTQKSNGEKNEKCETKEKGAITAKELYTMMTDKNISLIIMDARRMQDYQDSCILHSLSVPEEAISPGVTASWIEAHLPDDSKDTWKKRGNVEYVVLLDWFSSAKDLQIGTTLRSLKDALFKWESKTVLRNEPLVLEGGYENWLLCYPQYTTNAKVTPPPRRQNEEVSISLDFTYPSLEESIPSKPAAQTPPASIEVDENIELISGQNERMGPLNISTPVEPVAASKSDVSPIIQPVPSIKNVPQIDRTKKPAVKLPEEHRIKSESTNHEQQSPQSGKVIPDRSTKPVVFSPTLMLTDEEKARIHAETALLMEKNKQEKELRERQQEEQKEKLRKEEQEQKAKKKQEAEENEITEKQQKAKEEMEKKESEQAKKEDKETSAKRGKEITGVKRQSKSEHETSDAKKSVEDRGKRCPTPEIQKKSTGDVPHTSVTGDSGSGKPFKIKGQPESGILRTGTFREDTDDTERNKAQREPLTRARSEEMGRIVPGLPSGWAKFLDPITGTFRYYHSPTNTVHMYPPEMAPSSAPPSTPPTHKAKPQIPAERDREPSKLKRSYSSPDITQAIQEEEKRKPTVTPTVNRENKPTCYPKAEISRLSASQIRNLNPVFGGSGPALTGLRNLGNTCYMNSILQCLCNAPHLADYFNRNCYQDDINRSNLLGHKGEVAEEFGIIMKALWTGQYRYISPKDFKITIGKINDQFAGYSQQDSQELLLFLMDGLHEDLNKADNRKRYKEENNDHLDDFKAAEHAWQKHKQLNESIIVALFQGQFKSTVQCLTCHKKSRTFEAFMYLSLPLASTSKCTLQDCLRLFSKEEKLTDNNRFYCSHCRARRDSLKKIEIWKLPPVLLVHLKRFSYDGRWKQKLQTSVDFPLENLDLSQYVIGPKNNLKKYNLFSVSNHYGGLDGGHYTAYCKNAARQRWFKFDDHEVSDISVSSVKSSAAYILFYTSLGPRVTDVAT

As to `COc1cccc(C(=O)Cn2c(=O)n(CCCC(=O)NCc3ccco3)c(=O)c3ccc(Cl)cc32)c1`, the IC50 (usually the concentration that gives 50% inhibition) was > 40 µM (inactive). `Cn1c(O)c(C2=Nc3ccccc3SC(c3cccc(O)c3)C2)c(=O)[nH]c1=O` (stereo not given): the IC50 was > 40 µM (inactive). As to `COc1ccc(NC(=O)Cn2c(=O)n(CCCC(=O)NC3CCCC3)c(=O)c3cc(Cl)ccc32)c(OC)c1`, the IC50 was > 40 µM (inactive). Take `COc1cc(O)cc2c1C(=O)OC(C)CCCCCCC2` (stereo not given): the IC50 was > 40 µM (inactive). Next, `COc1ccc(NC(=O)CNC(=O)c2ccc3nc(-n4cccc4)sc3c2)cc1`: > 40 µM (inactive); `O=C1c2c(O)cccc2C2(Oc3cccc4cccc(c34)O2)C2OC12` (stereo not given): 7.76 µM.

As for `COc1ccc(CCC(=O)Nc2nnc(C3CC(=O)N(c4ccc(C)cc4)C3)s2)cc1` (stereo not given), the IC50 is > 40 µM (inactive). Consider `O=C(NCc1ccc2c(c1)OCO2)c1cn(-c2cccc(Cl)c2)nn1`, for which the IC50 was > 40 µM (inactive). For `COc1ccc(C(=O)C(C)OC(=O)c2cccc(S(=O)(=O)Nc3cc([N+](=O)[O-])ccc3OC)c2)c(OC)c1` (stereo not given), the IC50 was > 40 µM (inactive). Turning to `CC(C)[C@H]1CC[C@@]2(CO2)[C@H]2C(=O)OCC(C(=O)O)=C[C@H]12`, the IC50 was 22.9 µM.

Turning to `O=[N+]([O-])c1ccc2c(c1)nc1n2CCN(Cc2ccco2)C1`, the IC50 is > 40 µM (inactive). Regarding `COc1ccc(Oc2cc3n(c(=O)n2)CCc2cc(OC)c(OC)cc2-3)cc1`, the IC50 was > 40 µM (inactive). Take `Cc1ccccc1-c1nnc2sc(COc3ccc(Cl)cc3)nn12`: the IC50 was > 40 µM (inactive).

Regarding `O=C(NCc1ccc(Cl)cc1)c1cc2c(s1)-c1ccccc1OC2`, the IC50 was > 40 µM (inactive). Then `CCOc1ccc(NC(=O)Cn2c(=O)n(CCC(=O)NCc3ccccc3OC)c(=O)c3ccccc32)cc1`, with > 40 µM (inactive). On to `O=C(Cn1c(=O)n(Cc2ccccc2)c(=O)c2ncccc21)NCc1ccccc1Cl`, for which the IC50 is > 40 µM (inactive). Regarding `O=C(c1cnc2[nH][nH]c(=O)c2c1)c1cc(Cl)cc(Cl)c1O`, the IC50 was 10.7 µM. Take `Cc1cc(O)c(=O)cc2c1C[C@H]1CC(C)(C)/C=C/C[C@@]3(C)Oc4cc(=O)c(O)cc(C)c4C[C@@H]3C[C@H](O)[C@]1(C)O2`: the IC50 is > 40 µM (inactive). For `O=C(CCCn1c(=O)c2ccccc2n(CC(=O)c2ccc(Br)cc2)c1=O)NC1CCCC1`, the IC50 was > 40 µM (inactive).

Consider `CC(C)CC(NC(=O)c1ccc(Cl)cc1Cl)c1nc2ccccc2[nH]1` (stereo not given), for which the IC50 was > 40 µM (inactive). Then `CCC(=O)Nc1nc2cc(NC(=O)Nc3ccccc3Cl)ccc2s1`, with > 40 µM (inactive). Take `Cc1cccc(-c2nnn3c2nc(NCC2CCCO2)c2ccccc23)c1` (stereo not given): the IC50 was > 40 µM (inactive).

Take `O=C(CSc1nnc2ccc3ccccc3n12)c1ccc(Cl)cc1`: the IC50 was > 40 µM (inactive).

Take `N#C/C(=C\c1ccccc1F)c1nnc(N)s1`: the IC50 is > 40 µM (inactive). Then `CC(=O)Nc1ccc(C(=O)/C=C2\NCCc3cc4c(cc32)OCCCO4)cc1`, with > 40 µM (inactive).

As to `O=C(Cn1cc(C(=O)C(F)(F)F)c2ccccc21)N1CCc2ccccc21`, the IC50 is > 40 µM (inactive). `CCOc1ccc(NC(=O)Cn2c(=O)n(CCCCCC(=O)NCc3ccc(F)cc3)c(=O)c3sccc32)cc1`: the IC50 was > 40 µM (inactive). On to `Cc1ccc(CNCc2cc3c(-c4ccc(F)cc4)nn(-c4ccccc4)c3[nH]c2=O)cc1`, for which the IC50 was > 40 µM (inactive).

As to `COc1ccc(NC(=O)c2cc(-c3cccnc3)n[nH]2)cc1Cl`, the IC50 was > 40 µM (inactive). With `O=C(Nc1nc(-c2ccccc2)ns1)c1ccc2ncsc2c1`, the IC50 is > 40 µM (inactive).

With `O=C(COc1ccc(N2CC(C(=O)NCc3ccc4c(c3)OCO4)CC2=O)cc1)Nc1ccc(Cl)cc1` (stereo not given), the IC50 is > 40 µM (inactive). Next, `Cc1ccccc1Cn1c(=O)n(CC2CCC(C(=O)NC3CCCC3)CC2)c(=O)c2ccccc21` (stereo not given): > 40 µM (inactive); `Cc1ccc(-c2nnc3ccc(SCC(=O)N4CCCc5ccccc54)nn23)cc1`: > 40 µM (inactive); `O=C(NCCc1nc2ccccc2n1Cc1ccccc1F)c1ccc(Cl)cc1`: > 40 µM (inactive).

Consider `Cc1ccc2c(c1)N=C(c1ccc([N+](=O)[O-])cc1)CO2`, for which the IC50 is > 40 µM (inactive). Consider `COc1ccccc1-c1nc(-c2cn(-c3ccc(F)cc3)nn2)no1`, for which the IC50 was 27.8 µM. In the case of `CCc1nc(SCC(=O)Nc2cc(Cl)ccc2C)c2oc3ccccc3c2n1`, the IC50 was > 40 µM (inactive).

On to `NS(=O)(=O)c1cccc(NS(=O)(=O)c2ccc(/C=C/C(=O)OCC(=O)c3ccc(Br)cc3)cc2)c1`, for which the IC50 was > 40 µM (inactive). Regarding `O=C(Nc1cccnc1)C1c2ccccc2C(=O)N(c2ccccc2)C12CCCCC2` (stereo not given), the IC50 is > 40 µM (inactive). Next, `Cc1ccc(NC(=O)Cn2c(=O)n(CCC(=O)NCCc3ccccc3)c(=O)c3ccccc32)cc1C`: > 40 µM (inactive). Take `O=C(COc1ccc(Cl)cc1Cl)Nc1ccccc1-c1nc2ccccc2[nH]1`: the IC50 is > 40 µM (inactive). For the compound `CCCCCC(=O)C(CCCC)c1oc(=O)c(CCCC)c(O)c1CCCC` (stereo not given), the IC50 is > 40 µM (inactive).

Consider `O=C(Nc1cc(S(=O)(=O)Nc2ccc(Cl)cc2)ccc1O)c1cc2c(s1)CCC2`, for which the concentration for half-maximal inhibition (IC50) is 10.7 µM. As to `Cc1ccccc1NC(=O)Cn1ccc2ccn(Cc3ccccc3)c2c1=O`, the IC50 was > 40 µM (inactive). Regarding `O=C(Cn1cc(C(=O)c2ccccc2)c(=O)c2cc(F)ccc21)Nc1ccc2c(c1)OCCO2`, the IC50 was > 40 µM (inactive).

As to `Cc1cccc2nc(CSc3nc4ccc([N+](=O)[O-])cc4[nH]3)cn12`, the IC50 was > 40 µM (inactive). Take `O=C(CSc1nc2ccccc2[nH]1)Nc1cccc2c1OCCO2`: the IC50 was > 40 µM (inactive). In the case of `NC(=O)C1(N2CCCCC2)CCN(c2ncc3c(=O)n(-c4ccccc4)c(=O)[nH]c3n2)CC1`, the IC50 was > 40 µM (inactive). Take `CN1CC(c2ncn[nH]2)c2cc(C(=O)NCc3cccc(F)c3)ccc21` (stereo not given): the IC50 was > 40 µM (inactive). Consider `Cn1c2ccccc2c(=O)c2c(=O)n(Cc3ccco3)c(-c3ccccc3F)nc21`, for which the IC50 is 29.4 µM. With `CCCN1CCN(C(=O)Cn2c(C)ccc(NC(=O)c3ccccc3)c2=O)CC1`, the IC50 is > 40 µM (inactive). For `CCC(C(=O)C(C)C(O)C(C)CCc1ccc(C)c(O)c1C(=O)O)C1OC(CC)(C2CCC(O)(CC)C(C)O2)CC1C` (stereo not given), the IC50 is > 40 µM (inactive). On to `CC/C=C\C/C=C\C/C=C\CCCCCCCC(=O)O`, for which the IC50 is 17.7 µM. Take `O=C(COc1cccc(-c2noc(-c3ccc([N+](=O)[O-])cc3)n2)c1)Nc1ccccc1`: the IC50 is > 40 µM (inactive).

Take `O=C(COc1ccccc1-c1nnc(-c2ccccc2)o1)NCc1ccco1`: the IC50 is 37.9 µM. For the compound `CCc1ccc(S(=O)(=O)c2cn(CC(=O)Nc3ccccc3)c3ccccc3c2=O)cc1`, the IC50 is > 40 µM (inactive). Take `CC1=C(Cn2c3cccc(=O)c-3nc3ccccc32)CCC(C)(C)C1`: the IC50 was 1.71 µM.

In the case of `CCc1ccc(NC(=O)C(C)OC(=O)/C=C/c2ccc(S(=O)(=O)Nc3cccc(S(N)(=O)=O)c3)cc2)cc1` (stereo not given), the IC50 was > 40 µM (inactive). Then `Cc1ccc2c(c1)c1ncn(Cc3nc(C)no3)c(=O)c1n2CC(=O)NCc1ccccc1`, with > 40 µM (inactive); and `O=C(COC(=O)c1cc2c(s1)CCC2)c1ccc2[nH]c(=O)[nH]c2c1`, with > 40 µM (inactive); and `COc1cccc(C(=O)Nc2ccc(SC(C)C(=O)Nc3ccc(C(N)=O)cc3)cc2)c1` (stereo not given), with > 40 µM (inactive). In the case of `c1cncc(-c2cnc3sc(NC4CCCCC4)nn23)c1`, the IC50 is > 40 µM (inactive). Next, `CCCCCCCc1cc(OC(=O)c2c(CCCCCCC)cc(O)cc2O[C@@H]2O[C@H](CO)[C@H](O)[C@H](O)[C@H]2O)cc(O)c1C(=O)O`: 9.43 µM; `O=c1cc(-c2ccc(O)c(O)c2)oc2cc(O[C@@H]3O[C@H](CO)[C@@H](O)[C@H](O)[C@H]3O)cc(O)c12`: 2.01 µM; `Cc1ccc(-c2cc(C(F)F)n3ncc(C(=O)Nc4ccc(O)cc4)c3n2)cc1`: > 40 µM (inactive).

Turning to `CCOc1ccc(C(=O)CCC(=O)Nc2cccc(S(=O)(=O)Nc3cccc(Cl)c3)c2)cc1`, the IC50 is > 40 µM (inactive). For `COc1cccc(NC(=O)Cn2cc(C(=O)c3ccc(C)cc3)c(=O)c3cc(Cl)ccc32)c1`, the 50% inhibitory concentration (IC50) was 19.3 µM.

As for `COc1ccc2c(c1)c(CC(=O)Nc1ccc(N3CCOCC3)cc1)c(C)n2C(=O)c1ccc(Cl)cc1`, the IC50 was > 40 µM (inactive). Next, `Cc1ccc(C(=O)Nc2ccc3c(c2)Sc2ncccc2C(=O)N3C(C)C)cc1C`: > 40 µM (inactive); `O=C(Nc1ccccc1Cl)c1cc(-c2ccncc2)n[nH]1`: > 40 µM (inactive); `CCOC(=O)CCc1c(C)c2ccc(OCC(=O)c3ccc(-c4ccccc4)cc3)c(C)c2oc1=O`: > 40 µM (inactive). Turning to `O=C1CC(O)C(O)c2cccc(O)c21` (stereo not given), the IC50 is > 40 µM (inactive). Next, `COc1cc(C2CC(=O)c3c([nH]c(C(=O)OCCOc4ccccc4)c3C)C2)cc(OC)c1OC` (stereo not given): > 40 µM (inactive); `CCn1c(SCC(=O)c2c(N)n(CC(C)C)c(=O)n(C)c2=O)nnc1-c1ccccc1`: > 40 µM (inactive). In the case of `O=C(NCC1(c2ccccc2)CCC1)c1nc2n(n1)-c1ccccc1S(=O)(=O)N2`, the IC50 is > 40 µM (inactive).

With `Cc1ccc(-n2nc(C(=O)Nc3ccc(C)cn3)c3ncn(C)c(=O)c32)cc1`, the IC50 was > 40 µM (inactive). Next, `Cc1ccnc(NS(=O)(=O)c2ccc(NC(=O)c3ccc(S(=O)(=O)N(C)Cc4ccccc4)cc3)cc2)n1`: > 40 µM (inactive).

As to `C=C1C=C(CCC(=O)O)C(=O)OC1/C=C/C=C/C` (stereo not given), the IC50 is 2.09 µM. Consider `CC(CCc1ccccc1)NC(=O)Cn1c(=O)c2cccn2c2ccccc21` (stereo not given), for which the IC50 is > 40 µM (inactive). Consider `COc1cc(NC(=O)Cc2ccccc2)ccc1NC(=O)c1cc2ccccc2o1`, for which the IC50 is > 40 µM (inactive).

Values taken from PubChem BioAssay AID1645862 (Buhrlage Lab, Dana-Farber Cancer Institute and Novartis …, 2021).
